Measured values: US9927437B2, “Treating neurodegenerative disease” (THE BRIGHAM AND WOMEN'S HOSPITAL, INC., priority 2013, dated 2018)

How the values were obtained:
[1] = system: microglia and CNS-infiltrating monocytes; assay: mRNA expression in microglia and CNS-infiltrating monocytes from EAE NOD mice; type: in vivo, mouse
Source text: FIGS. 5a-m. B4GALT6 in astrocytes regulates the activation of microglia and CNS-infiltrating monocytes. (a) Heatmap depicting mRNA expression, as determined by nCounter Nanostring analysis, in microglia from naïve or EAE NOD mice treated with PDMP or vehicle. Representative data of three independent experiments. Statistical analysis by Student's t-test. (b) qPCR analysis of ccl5, il1b, opn, nos2, cd40, and H2-Aa gene expression relative to Gapdh. (c, d) Mean normalized expression of genes associated with M1- or M2-phenotype in microglia (Table 3) (c) and Ly6C^high monocytes (d). Statistical analysis by Student's t-test. (e-h) primary microglia were pre-treated with PDMP, LacCer, or vehicle, followed by activation with LPS/IFNγ for 6 h or left un-treated (control) as in (FIG. 3a). mRNA expression was determined by nCounter Nanostring analysis (e, g), and microglial viability was determined (f, h). Representative data of five independent experiments. (i) Mixed glia cultures were treated with mild trypsin/EDTA (T/E) to remove the astrocyte monolayer leaving only the microglia attached to the plate, or left un-treated. Cultures were pre-treated with PDMP, LacCer or vehicle, and activated with LPS/IFNγ for 6 h. Following activation, both cultures were washed, and incubated with mild T/E to remove the astrocytes; thus, leaving only the microglia (MG) attached to the plates. RNA was harvested from microglia treated in the absence [MG (pure)] or presence [MG (mixed)] of astrocytes and gene expression was analyzed by qPCR for the expression ccl2, ccl5 and nos2 relative to gapdh. Data present the relative effect of PDMP (left panel) or LacCer (right panel) pre-treatment on LPS/IFNγ-triggered gene induction, from five independent experiments. Statistical analysis by Student's t-test. (j) Mixed glia were pre-treated with indicated blocking antibodies or appropriate isotype controls (25 μg/ml) and LacCer […] or vehicle control, and then activated with LPS/IFNγ for 6 h. Microglia were isolated as in (i), and microglial-nos2 expression was determined by qRT relative to gapdh and presented as in (i). Representative data of three independent experiments. (k) ChIP analysis of the interaction of NF-κB, and IRF-1 with the csf2 promoter in primary cultured astrocytes. (l, m) Expression csf2 in astrocytes (l) and nos2 in microglial cells (m) isolated form the CNS of chronic EAE NOD mice, 10 days after the i.c.v. injection of astrocytes-specific shRNA lentivirus as in (FIG. 3j). Data from two independent experiments. For all data, means and s.e.m. are shown. *P<0.05, **P<0.01, ***P<0.001 and n.s. not significant.
Mononuclear cells were isolated from the CNS as previously described^50 with minor modifications. […]

B4GALT5/6 = assay: Quantification of LacCer levels in the CNS (LC-MS/MS); type: in vivo, mouse; conditions: NOD EAE
Procedure: Chemical standards of LacCer (d18:1/16:0) and LacCer (d18:1/18:0) were obtained from Avanti Polar Lipids. Quantification of LacCer (d18:1/16:0) and LacCer (d18:1/18:0) was achieved by LC-MS/MS analysis performed on an Agilent (Agilent Technologies, Santa Clara, Calif.) 6460 triple-quadrupole LC/MS/MS system. The fragments from the [M+H]^+ ions for LacCer and internal standard were subjected to collision induced dissociation and the two major types of fragment ions were monitored via electrospray ionization in the positive ion mode in multiple reaction monitoring (MRM) mode for each ion. These two MRM transitions corresponded to the loss of the neutral lactosyl moiety, and to the formation of the lactose ion. Specifically, the MRM transitions used for quantification for LacCer (d18:1/16:0) and LacCer(d18:1/18:0) were 862.5>[…] and 890.6>548.5, respectively. Secondary confirmatory MRM transitions for LacCer(d18:1/16:0) and LacCer(d18:1/18:0) of 862.5>264.3 and 890.6>264.3 were also monitored. Mass spectrometer parameter settings were gas temp (325° C.), gas flow (12 L/min), nebulizer (25 psi), sheath gas temp (400° C.), sheath gas flow (12 L/min), capillary voltage (4000v), and nozzle voltage (500v). Liquid chromatography conditions with an a Phenomenex Gemini C18 column 4.6×50 mm 5 μm particle size was used for separation. Chromatography method the following flow rate=0.4 mLs/min; solvent A=5 mM ammonium formate in 5% MeOH and 0.1% formic acid v/v/v; solvent B=80% 2-propanol, 15% methanol, 5% water and 0.1% formic acid (v/v/v/v). […] Standard curve mixture was analyzed at various concentrations between 0.10 nM to 3.3 μM in LacCer (d18:1/16:0) and an internal standard concentration of 1 μM. The lower limit of quantification was estimated at 1 nM and a R^2 of 0.9969 was obtained using linear regression analysis. […]
The brain tissue was weighed and homogenized using a Dounce homogenizer (VWR), in the extraction solvent using a Bligh and Dyer type liquid-liquid extraction. […] The dried sample was reconstituted in 100 μl of 2:1 chloroform-methanol, and analyzed using the HPLC-MS.

Compound | nos2 expression in microglia ([1]; chronic NOD EAE, 10 days after i.c.v. shRNA lentivirus) | CNS LacCer levels (B4GALT5/6; i.c.v. 1×10^7 IU lentivirus at day 35, 10 days after injection) | M1-associated genes in microglia and CNS-infiltrating monocytes ([1]; NOD EAE) | M2-associated genes in microglia and CNS-infiltrating monocytes ([1]; NOD EAE) | expression of genes associated with microglia activation ([1]; microglia from NOD EAE progressive phase) | CNS LacCer levels (B4GALT5/6; 20 mg/kg twice a day from day 40)
shB4galt6: lentivirus-delivered shRNA against b4galt6 (TRCN0000334278; SEQ ID NO:3) (guide CGATGGACTGAACAATTTATTCTCGAGAATAAATTGTTCAGTCCACG) | decreased nos2 expression | significant decrease |  |  |  | 
CCCCCCCCCC(=O)N[C@H](CN1CCOCC1)[C@H](O)c1ccccc1 [PDMP, D-threo-1-phenyl-2-decanoylamino-3-morpholino-1-propanol] |  |  | significant down regulation | up-regulation | reduced the expression | significant decrease
